Test results: US5332811A, “Etopside analogs” (priority 1991, dated 1994)
Like-named read-outs stand apart in the source and are kept apart here.

Legend:
[1] = biological target: Human DNA topoisomerase II; test: DNA topoisomerase II assay (P4 unknotting reaction); assay type: biochemical; settings: for IC50: read-out: Inhibition of DNA Topoisomerase II Activity ID50
Description: (§1) The compounds of the present invention were tested for their degree of inhibitory activity on human type II DNA topoisomerase, their effect on the formation of protein-linked DNA breakage, and their cytotoxicity. […] For a description of the assays used with respect to the compounds listed in Tables 1 to 5 see Thurston, L.S., Irie, H., Tani, S., Han, F. S., Liu, Z. C., Cheng, Y.C., and Lee, K. H., Antitumor Agents 78. Inhibition of Human DNA Topoisomerase II by Podophyllotoxin and Peltatin Analogues, J. Med. Chem. 29, 1547 (1986), and the references cited therein, herein incorporated by reference.
Human DNA topoisomerase II was isolated from peripheral blast cells of a patient with acute leukemia. The isolation procedure is described in Thurston, L., Imakura, Y., Haruna, M., Li, Z. C., Liu, S. Y., and Lee, K. H., J. Med. Chem., 31, […] (1988) and is a partial combination of the procedure described in Goto, T., Laiapia, P. and Wang, J., J. Biol. Chem., 259, 10422 (1984) and Halligan, B., Edwards, K., and Liu, L., J. Biol. Chem., 260, 2475 (1985) which are herein specifically incorporated by reference.
(§2) Drugs were dissolved in Me2 SO at a concentration of 20 mM as the stock solution and diluted before use with water to the desired concentration of each drug.
The P4 unknotting reaction was a modification of the procedure described by Hseih, T., J. Biol. Chem., 258, 8413 (1985), which is herein specifically incorporated by reference.
The reaction mixture (20 μL), which contained 50 mM HEPES, pH 7.0, 50 mM KCI, 100 mM NaCl, 0.1 mM EDTA, 10 mM MgCl2, 1.0 mM ATP, 50 μg/mL bovine serum albumin, 0.4 μg P4knotted DNA, and enzyme, was incubated with or without drugs.
The reaction mixture was incubated at 37° C. for 30 min and terminated by adding 5.0 μl of a stop solution (2% sodium dodecyl sulfate, 20% glycerol, 0.05% bromophenol blue). These samples were loaded onto a 1% agarose gel and electrophoresed at 55 V overnight with an electrophoresis buffer that contained 90 mM Tris-boric acid, pH 8.3, and 2.5 mM EDTA. At completion, the gel was stained in 0.5 μg/mL of ethidium bromide. Then a photograph was taken of the DNA bands visualized with fluorescence induced by a long-wavelength UV lamp. […]

[2] = test system: KB cells; test: Cytotoxicity: 50% reduction in cell number of KB cells after three day incubation; assay type: cell-based; settings: Homo sapiens, 72 h, read-out: Cytotoxicity ID50 KB
Description: as §1, with “cytotoxicity. The inhibitory activity for compounds of the present invention correlated with the ability of the compounds to cause DNA strand breakage.” for “cytotoxicity.”
in cell number after three day incubation.

[3] = test system: covalent topoisomerase II-DNA complexes; test: K-SDS precipitation assay for protein-DNA complexes in KB ATCC cells (cellular protein-DNA complex formation); assay type: cell-based; settings: compared with etoposide
Description: as §1, with “cytotoxicity. The inhibitory activity for compounds of the present invention correlated with the ability of the compounds to cause DNA strand breakage.” for “cytotoxicity.”
as §2
The intracellular formation of covalent topoisomerase II-DNA complexes was quantitated using the potassium SDS precipitation assay, a procedure adapted from the method described in Rowe, T. C., Chen, G. L., Hsiang, Y. H., and Liu, L., Cancer Res., 46, 2021 (1986) (hereinafter Rowe et al.), which is herein specifically incorporated by reference. KB ATCC cells were prelabeled with 0.05 mCi/ml ^14 C-thymidine (specific activity 50.5 mCi/mmol) for 18 hr. A final concentration of 5×10^5 cells/sample were treated with 10 μM of the drugs at 37° C. for 1 hr and proceeded according to the procedure described by Rowe et al. to detect the protein linked DNA levels.

[4] = Table 3, based on degree of inhibition at 20, 25, 50 and 100 μM
[5] = Table 3, KB cells, three day incubation
[6] = Table 4, based on degree of inhibition at 10, 25, 50 and 100 μM
[7] = Table 4, KB cells, three day incubation
[8] = Table 5, based on degree of inhibition at 10, 25, 50 and 100 μM
[9] = Table 5, KB cells, three day incubation

COc1cc(C2c3cc4c(cc3C(NCc3cccc(F)c3)C3COC(=O)C23)OCO4)cc(OC)c1O (stereo not drawn) [Example 8, 4-O-Dimethyl-4β-(3"-fluorobenzylamino)-4-desoxypodophyllotoxin]
IC50 ([1]; Table 1, based on degree of inhibition at 25, 50, and 100 μM): 25 µM
inhibition of DNA topoisomerase activity relative to etoposide ([1]; compared with etoposide): over twice
IC50 ([2]; Table 1, KB cells, three day incubation): 3 µM
inhibition of cellular protein-DNA complex formation relative to etoposide [3]: over twice

COc1cc([C@@H]2c3cc(O)c(O)cc3[C@@H](Nc3ccccc3)[C@H]3COC(=O)[C@H]23)cc(OC)c1O [Example 26, 6,7-O-Demethylene-4'-O-demethyl-4β-anilino-4-desoxypophyllotoxin]
IC50 [1, 4]: 25 µM
IC50 ([2]; KB): > 1 µM

COc1cc([C@@H]2c3cc(O)c(O)cc3[C@@H](Nc3ccc([N+](=O)[O-])cc3)[C@H]3COC(=O)[C@H]23)cc(OC)c1O [Example 27, 6,7-O-Demethylene-4'-O-demethyl-4β-(4"-nitroanilino)-4-desoxypodophyllotoxin]
IC50 [1, 4]: 20 µM
IC50 [2, 5]: 0.76 µM

CCOC(=O)c1ccc(N[C@@H]2c3cc(O)c(O)cc3[C@@H](c3cc(OC)c(O)c(OC)c3)[C@H]3C(=O)OC[C@@H]32)cc1 [Example 28, 6,7-O-Demethylene-4'-O-demethyl-4β-[4"-(ethoxycarbonyl)anilino]-4-desoxypodophyllotoxin]
IC50 [1, 4]: 20 µM
IC50 [2, 5]: 0.78 µM

COc1cc([C@@H]2c3cc(O)c(O)cc3[C@@H](Nc3ccc(C#N)cc3)[C@H]3COC(=O)[C@H]23)cc(OC)c1O [Example 29, 6,7-O-Demethylene-4'-O-demethyl-4β-(cyanoanilino)-4-deoxypodophyllotoxin]
IC50 [1, 4]: 20 µM
IC50 [2, 5]: 1 µM

COc1cc([C@@H]2c3cc(O)c(O)cc3[C@@H](Nc3ccc(F)cc3)[C@H]3COC(=O)[C@H]23)cc(OC)c1O [Example 30, 6,7-O-Demethylene-4'-O-demethyl-4β-(fluoroanilino)-4-desoxypodophyllotoxin]
IC50 [1, 4]: 25 µM
IC50 [2, 5]: > 1 µM

COc1cc2c(cc1OC)[C@@H](Nc1ccc(F)cc1)[C@H]1COC(=O)[C@@H]1[C@@H]2c1cc(OC)c(O)c(OC)c1 [Example 31, 6,7-O-demethylene-6,7-O-dimethyl-4'-O-demethyl-4β-(4"-fluoroanilino)-4-desoxypodophyllotoxin]
IC50 [1, 4]: 50 µM
IC50 [2, 5]: 0.4 µM

COc1cc2c(cc1OC)[C@@H](Nc1ccc(C#N)cc1)[C@H]1COC(=O)[C@@H]1[C@@H]2c1cc(OC)c(O)c(OC)c1 [Example 32, 6,7-O-demethylene-6,7-O-dimethyl-4'-O-demethyl-4β-(4"-cyanoanilino)-4-desoxypodophyllotoxin]
IC50 [1, 4]: 50 µM
IC50 [2, 5]: < 0.4 µM

CCOC(=O)c1ccc(N[C@@H]2c3cc(OC)c(OC)cc3[C@@H](c3cc(OC)c(O)c(OC)c3)[C@H]3C(=O)OC[C@@H]32)cc1 [Example 33, 6,7-O-demethylene-6,7-O-dimethyl-4'-O-demethyl-4β-[4"-(ethoxycarbonyl)anilino]-4-desoxypodophyllotoxin]
IC50 [1, 4]: 100 µM
IC50 [2, 5]: < 0.4 µM

COc1cc([C@@H]2c3cc4c(cc3[C@@H](NC(=O)c3ccccc3)[C@H]3COC(=O)[C@H]23)OCO4)cc(OC)c1O [Example 34, 4'-O-Demethyl-4β-(benzoylamino)-4-desoxypodophyllotoxin]
IC50 [1, 6]: > 50 µM
IC50 [2, 7]: 0.64 µM

COc1cc([C@@H]2c3cc4c(cc3[C@@H](NC(=O)c3ccccc3O)[C@H]3COC(=O)[C@H]23)OCO4)cc(OC)c1O [Example 35, 4'-O-Demethyl-4β-[(2-hydroxylbenzoyl)amino]-4-desoxypodophyllotoxin]
IC50 [1, 6]: 50 µM
IC50 [2, 7]: < 1 µM

COc1cc([C@@H]2c3cc4c(cc3[C@@H](NC(=O)c3ccc(F)cc3)[C@H]3COC(=O)[C@H]23)OCO4)cc(OC)c1O [Example 36, 4'-O-Demethyl-4β-[(4"-fluorobenzoyl)amino]-4-desoxypodophyllotoxin]
IC50 [1, 6]: 25 µM
IC50 [2, 7]: 0.34 µM

COc1cc([C@@H]2c3cc4c(cc3[C@@H](NC(=O)c3ccc(OC(C)=O)cc3)[C@H]3COC(=O)[C@H]23)OCO4)cc(OC)c1O [Example 37, 4'-O-Demethyl-4β-[(4-acetoxybenoyl)amino]-4-desoxypodophyllotoxin]
IC50 [1, 6]: 25 µM
IC50 [2, 7]: 0.61 µM

COc1cc([C@@H]2c3cc4c(cc3[C@@H](NC(=O)c3ccc(C(C)=O)cc3)[C@H]3COC(=O)[C@H]23)OCO4)cc(OC)c1O [Example 38]
IC50 [1, 6]: 50 µM
IC50 [2, 7]: 1 µM

COc1cc([C@@H]2c3cc4c(cc3[C@@H](NC(=O)c3cccc(C#N)c3)[C@H]3COC(=O)[C@H]23)OCO4)cc(OC)c1O [Example 39, 4'-O-Demethyl-4β-[(3"-cyanobenzoyl)amino]-4-desoxypodophyllotoxin]
IC50 [1, 6]: 50 µM
IC50 [2, 7]: 1 µM

COc1cc([C@@H]2c3cc4c(cc3[C@@H](NC(=O)c3ccc(C#N)cc3)[C@H]3COC(=O)[C@H]23)OCO4)cc(OC)c1O [Example 40, 4'-O-Demethyl-4β-[(4"-cyanobenzoyl)amino]-4-desoxypodophyllotoxin]
IC50 [1, 6]: 25 µM
IC50 [2, 7]: 0.1 µM

COc1cc([C@@H]2c3cc4c(cc3[C@@H](NC(=O)c3cccc([N+](=O)[O-])c3)[C@H]3COC(=O)[C@H]23)OCO4)cc(OC)c1O [Example 41, 4'-O-Demethyl-4β-[(3"-nitrobenzoyl)amino]-4-desoxypodophyllotoxin]
IC50 [1, 6]: 10 µM
IC50 [2, 7]: 0.33 µM

COc1cc([C@@H]2c3cc4c(cc3[C@@H](NC(=O)c3cccc(N)c3)[C@H]3COC(=O)[C@H]23)OCO4)cc(OC)c1O [Example 42, 4'-O-Demethyl-4β-[(3"-aminobenzoyl)amino]-4-desoxypodophyllotoxin]
IC50 [1, 6]: 25 µM
IC50 [2, 7]: 0.42 µM

COC1=CC([C@@H]2c3cc4c(cc3[C@@H](Nc3ccc(F)cc3)[C@H]3COC(=O)[C@@H]32)OCO4)=CC(=O)C1=O [Example 43, 3',4'-Didemethoxy-3',4'-dioxo-4β-(4"-fluoroanilino)-4-desoxypodophyllotoxin]
IC50 [1, 8]: 25 µM
IC50 [2, 9]: > 2.1 µM

COC1=CC([C@@H]2c3cc4c(cc3[C@@H](Nc3ccc([N+](=O)[O-])cc3)[C@H]3COC(=O)[C@@H]32)OCO4)=CC(=O)C1=O [Example 44, 3',4'-Didemethoxy-3',4'-dioxo-4β-(4"-nitroanilino)-4-desoxypodophyllotoxin]
IC50 [1, 8]: 10 µM
IC50 ([2]; KB): 1.5 µM

CCOC(=O)c1ccc(N[C@@H]2c3cc4c(cc3[C@@H](C3=CC(=O)C(=O)C(OC)=C3)[C@H]3C(=O)OC[C@@H]32)OCO4)cc1 [Example 45, 3',4'-Didemethoxy-3',4'-dioxo-4β-[(4"-ethoxycarbonyl)anilino]-4-desoxypodophyllotoxin]
IC50 [1, 8]: 25 µM
IC50 [2, 9]: 1.1 µM
